Values quoted from earlier work as cited in patent US7649096B2, “Process for the preparation of a crystalline form of (S)-N [[3-(3-fluoro-4(4-morpholinyl) phenyl]-2-oxo-5-oxazolidinyl] methyl] acetamide” (Glenmark Pharmaceuticals Limited, priority 2005, dated 2010).

What was measured:
staphylococci = settings: against staphylococci
enterococci = settings: against enterococci
streptococci = settings: majority of strains

Which “results of time-kill studies (bacteriostatic or bactericidal)” value (shortened to “results of time-kill studies”) (staphylococci) does the source give for `CC(=O)NC[C@H]1CN(c2ccc(N3CCOCC3)c(F)c2)C(=O)O1` [linezolid, (S)-N-[[3-[3-fluoro-4-(4-morpholinyl)phenyl]-2-oxo-5-oxazolidinyl]methyl]acetamide] here?
Its value is “bacteriostatic”.

What about the “results of time-kill studies” value (enterococci) of the same compound?
Its value is “bacteriostatic”.

What about the “results of time-kill studies” value (streptococci) of the same compound?
The value was “bactericidal for the majority of strains”.
